Results: paper PMC10120462, “Styrylquinazoline derivatives as ABL inhibitors selective for different DFG orientations” (Journal of Enzyme Inhibition and Medicinal Chemistry, 2023)
Counter-ions that a name gives are not always drawn.

Columns and labels:
ABL = target: T1, ABL (Homo sapiens, UniProt P00519); test: Tyrosine kinase assay (Kinase Selectivity System TK-2, ADP-Glo); assay type: biochemical; details: 1 h incubation, mean ± SD of four experiments
T1 construct: purchased Promega

BTK = target: T2, BTK (Homo sapiens, UniProt Q06187); test: as above; assay type: biochemical; details: 1 h incubation, mean ± SD of four experiments
T2 construct: purchased Promega
T2 sequence (Q06187 whole entry): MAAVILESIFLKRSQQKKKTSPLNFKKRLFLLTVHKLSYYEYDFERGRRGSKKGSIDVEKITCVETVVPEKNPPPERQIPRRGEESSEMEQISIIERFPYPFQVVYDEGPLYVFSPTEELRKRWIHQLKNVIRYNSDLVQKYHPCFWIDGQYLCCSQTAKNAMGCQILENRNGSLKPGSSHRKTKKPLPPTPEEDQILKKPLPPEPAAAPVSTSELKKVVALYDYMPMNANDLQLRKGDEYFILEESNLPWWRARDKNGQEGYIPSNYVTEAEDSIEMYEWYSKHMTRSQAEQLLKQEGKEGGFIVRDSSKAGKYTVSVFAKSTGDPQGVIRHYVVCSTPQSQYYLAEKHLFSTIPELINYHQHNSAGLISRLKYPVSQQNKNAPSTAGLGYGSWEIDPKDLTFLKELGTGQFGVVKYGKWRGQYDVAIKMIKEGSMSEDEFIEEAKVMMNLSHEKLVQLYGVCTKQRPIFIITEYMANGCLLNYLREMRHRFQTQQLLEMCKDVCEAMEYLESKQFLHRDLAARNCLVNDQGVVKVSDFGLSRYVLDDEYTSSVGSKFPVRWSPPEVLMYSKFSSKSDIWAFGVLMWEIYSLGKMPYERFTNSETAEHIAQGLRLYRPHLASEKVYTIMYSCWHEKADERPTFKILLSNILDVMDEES

BRK = target: T3, BRK (Homo sapiens, UniProt Q13882); test: as above; assay type: biochemical; details: 1 h incubation, mean ± SD of four experiments
T3 construct: purchased Promega
T3 sequence (Q13882 whole entry): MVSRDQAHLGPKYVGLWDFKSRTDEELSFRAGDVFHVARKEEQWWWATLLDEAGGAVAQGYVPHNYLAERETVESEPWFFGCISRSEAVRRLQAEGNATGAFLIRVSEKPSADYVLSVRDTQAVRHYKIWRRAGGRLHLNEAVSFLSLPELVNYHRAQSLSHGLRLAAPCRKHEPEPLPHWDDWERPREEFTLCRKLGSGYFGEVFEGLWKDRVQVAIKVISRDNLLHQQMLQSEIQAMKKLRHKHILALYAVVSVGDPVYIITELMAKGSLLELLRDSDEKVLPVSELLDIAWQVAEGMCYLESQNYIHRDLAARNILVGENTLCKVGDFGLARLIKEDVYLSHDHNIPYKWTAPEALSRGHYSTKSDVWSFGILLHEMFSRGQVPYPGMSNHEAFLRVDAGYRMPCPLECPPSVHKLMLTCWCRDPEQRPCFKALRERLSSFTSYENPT

CSK = target: T4, CSK (Homo sapiens, UniProt P41240); test: as above; assay type: biochemical; details: 1 h incubation, mean ± SD of four experiments
T4 construct: purchased Promega

Fyn A = target: T5, Fyn A (Homo sapiens, UniProt P06241); test: as above; assay type: biochemical; details: 1 h incubation, mean ± SD of four experiments
T5 construct: purchased Promega
T5 sequence (P06241 whole entry): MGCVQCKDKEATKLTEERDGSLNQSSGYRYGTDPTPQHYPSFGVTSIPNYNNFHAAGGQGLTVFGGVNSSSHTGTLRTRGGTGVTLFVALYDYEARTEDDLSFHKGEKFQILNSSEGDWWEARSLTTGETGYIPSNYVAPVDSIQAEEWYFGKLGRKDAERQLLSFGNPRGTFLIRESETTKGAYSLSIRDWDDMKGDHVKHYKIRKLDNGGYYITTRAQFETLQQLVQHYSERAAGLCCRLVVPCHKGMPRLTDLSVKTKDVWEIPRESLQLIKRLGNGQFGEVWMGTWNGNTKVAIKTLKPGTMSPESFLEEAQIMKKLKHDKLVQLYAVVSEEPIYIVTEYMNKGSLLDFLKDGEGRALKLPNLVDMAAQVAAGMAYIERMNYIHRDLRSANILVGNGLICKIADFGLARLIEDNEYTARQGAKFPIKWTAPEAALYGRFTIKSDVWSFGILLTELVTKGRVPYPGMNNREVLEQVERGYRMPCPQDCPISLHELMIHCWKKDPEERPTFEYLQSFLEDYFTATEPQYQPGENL
Excerpt: All newly synthesised derivatives were screened for their inhibitory potential towards eight non-receptor tyrosine kinases, such as ABL, BTK, BRK and Src family kinases, such as CSK, Lyn, Lck, Fyn and Src. […] To facilitate the analysis of the structure and enzymatic activity, all tested compounds were divided into four subgroups based on the main structural scaffolds (the general structure of each group is shown in the second column of Table 1). Series A, B, and C were subdivided according to the S^4-aryl substituent, while D represents the different styryl groups at the C^2-quinazoline position.
Herein, we used a kinase assay that contained fully expressed kinases with their regulatory domains, which are responsible for autoinhibition. The proteins are present in their unphosphorylated form and the procedure required supplementation with ATP. Importantly, autophosphorylation of ABL is dependent on […] concentration of the protein. Thus, our experimental conditions reflect the cellular process to be simulated. The luminescence signal detected after one hour of incubation with a peptide substrate was a measure of inhibition. Under these conditions, the question of whether the inhibitors tested bind to the ortho or allosteric site of the protein could be answered. […] To test this hypothesis, further molecular docking experiments were performed to more precisely determine the binding of the tested compounds to the ABL kinase.
To determine the inhibition of non-receptor tyrosine kinases, assays were performed using the kinase selectivity system TK-2 and the ADP-Glo Kinase Assay (both from Promega). The protocol was previously developed by our group and described in reports[12]^,[36]. Experiments were performed at least four times. Data are expressed as percentage of tyrosine kinase inhibitory activity after treatment with the derivatives tested.

Lck = target: T6, Lck (Homo sapiens, UniProt P06239); test: as above; assay type: biochemical; details: 1 h incubation, mean ± SD of four experiments
T6 construct: purchased Promega
T6 sequence (P06239 whole entry): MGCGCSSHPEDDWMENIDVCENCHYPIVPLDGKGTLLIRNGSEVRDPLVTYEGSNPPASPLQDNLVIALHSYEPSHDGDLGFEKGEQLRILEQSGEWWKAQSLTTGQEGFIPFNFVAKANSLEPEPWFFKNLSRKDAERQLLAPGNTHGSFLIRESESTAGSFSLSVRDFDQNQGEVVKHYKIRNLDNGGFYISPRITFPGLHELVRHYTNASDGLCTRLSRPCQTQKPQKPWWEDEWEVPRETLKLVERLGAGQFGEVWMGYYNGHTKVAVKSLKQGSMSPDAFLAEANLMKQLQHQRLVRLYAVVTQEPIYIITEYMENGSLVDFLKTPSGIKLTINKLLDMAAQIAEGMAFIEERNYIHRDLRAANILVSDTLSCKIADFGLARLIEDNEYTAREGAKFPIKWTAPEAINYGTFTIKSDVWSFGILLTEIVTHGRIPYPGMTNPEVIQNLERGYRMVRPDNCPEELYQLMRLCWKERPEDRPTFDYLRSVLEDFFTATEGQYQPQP

Lyn B = target: T7, Lyn B (Homo sapiens, UniProt P07948); test: as above; assay type: biochemical; details: 1 h incubation, mean ± SD of four experiments
T7 construct: purchased Promega
T7 sequence (P07948 1-491 isoform P07948-2): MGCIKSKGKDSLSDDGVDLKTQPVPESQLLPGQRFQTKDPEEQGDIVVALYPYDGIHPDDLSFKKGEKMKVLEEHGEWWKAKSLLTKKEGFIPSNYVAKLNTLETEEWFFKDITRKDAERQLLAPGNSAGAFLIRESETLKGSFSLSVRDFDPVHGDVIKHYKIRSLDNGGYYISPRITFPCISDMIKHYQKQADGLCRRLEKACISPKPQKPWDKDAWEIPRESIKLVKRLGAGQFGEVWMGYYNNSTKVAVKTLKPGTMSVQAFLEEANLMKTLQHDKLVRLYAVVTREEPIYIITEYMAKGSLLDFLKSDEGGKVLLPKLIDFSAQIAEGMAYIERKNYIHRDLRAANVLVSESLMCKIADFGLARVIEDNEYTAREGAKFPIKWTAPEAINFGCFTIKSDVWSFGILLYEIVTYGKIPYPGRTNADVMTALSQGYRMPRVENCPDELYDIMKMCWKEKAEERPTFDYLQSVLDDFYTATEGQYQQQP

Src = target: T8, Src (Homo sapiens, UniProt P12931); test: as above; assay type: biochemical; details: 1 h incubation, mean ± SD of four experiments
T8 construct: purchased Promega
T8 sequence (P12931 whole entry): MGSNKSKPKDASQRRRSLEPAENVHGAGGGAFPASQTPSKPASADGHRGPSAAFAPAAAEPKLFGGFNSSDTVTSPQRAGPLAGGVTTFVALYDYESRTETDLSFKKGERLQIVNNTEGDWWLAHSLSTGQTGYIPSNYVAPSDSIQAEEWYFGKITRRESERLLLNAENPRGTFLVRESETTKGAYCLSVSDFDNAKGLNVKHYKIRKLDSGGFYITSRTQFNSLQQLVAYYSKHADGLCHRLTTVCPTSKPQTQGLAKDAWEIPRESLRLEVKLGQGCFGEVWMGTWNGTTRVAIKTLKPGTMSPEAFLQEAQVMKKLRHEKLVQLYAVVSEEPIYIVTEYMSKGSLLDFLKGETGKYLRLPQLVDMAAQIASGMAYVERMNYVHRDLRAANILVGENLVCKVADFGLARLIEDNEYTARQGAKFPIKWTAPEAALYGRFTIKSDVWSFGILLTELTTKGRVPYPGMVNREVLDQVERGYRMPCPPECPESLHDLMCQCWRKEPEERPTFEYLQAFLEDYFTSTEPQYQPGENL

A549 = test: Cytotoxicity studies (MTS), antiproliferative activity; assay type: cell-based, human; details: Homo sapiens, A549; 72 h, MTS
Excerpt: (§1) In contrast, the other cell lines studied represent common cancers found in the human population. Nevertheless, these cell lines are characterised by a different landscape of kinase expression, as reported in[36]. In chronic leukaemia cells, an aberration of the Philadelphia chromosome is common in which a fragment of chromosome 9 is displaced to chromosome 22, leading to the formation of the oncogenic protein BCR-ABL. The altered structure of the protein leads to abnormal activity that promotes excessive growth and differentiation of cells even in the absence of growth factors, as well as inhibition of apoptosis and formation of metastases. Moreover, the status of the TP53 gene in leukaemia is not insignificant. Mutations of the TP53 gene occur in more than 50% of all cancers, leading to increased metastasis and an overall poor prognosis[38]^,[39]. The p53 protein encoded by this gene plays a pivotal role in controlling cell division or cell fate when damage is detected. […] Therefore, interaction between the signalling network of the BCR-ABL pathway and p53 often results in an impairment of p53 function and survival[43]^,[44]. […] Selectivity studies were performed on normal human fibroblast – NHDF cell line.
(§2) M. Rusin from the Maria Sklodowska-Curie Memorial Cancer Centre and Institute of Oncology in Gliwice, Poland. […] G. Kramer-Marek from the Institute of Cancer Research in London, United Kingdom. The human suspension chronic myeloids leukaemia cell line K562 and the pancreatic ductal adenocarcinoma cell line PANC-1 were purchased from Merck. The normal human dermal fibroblasts cell line NHDF were obtained from PromoCell. All adherent cancer cell lines were cultured in Dulbecco’s Modified Eagle’s medium (DMEM) supplemented with 10% heat-inactivated foetal bovine serum – FBS (all from Merck). […] Each complete medium contained a mixture of two antibiotics - penicillin and streptomycin (1% v/v; Gibco). Cell lines were cultured at 37 °C with 5% CO2 humidified atmosphere.
(§3) The assay was carried out after 72 h of incubation with different concentrations of the tested compounds. Then DMEM without phenol red was added to each well with CellTiter 96®AQueous One Solution-MTS (Promega) solution and incubated for 1 h or 3 h (PANC-1) at 37 °C. The optical densities of the samples were measured at 490 nm using a multi-plate reader (Synergy 4, BioTek). […] Each compound was tested in triplicate in a single experiment and each experiment was performed three or four times.

HCT 116 p53+/+ = test: as above; assay type: cell-based, human; details: Homo sapiens, HCT-116; 72 h, MTS
Excerpt: as §1, §2, §3

HCT 116 p53−/− = test: as above; assay type: cell-based, human; details: Homo sapiens, HCT-116; 72 h, MTS
Excerpt: as §1, §2, §3

K562 = test: as above; assay type: cell-based, human; details: Homo sapiens, K562; 72 h, MTS
Excerpt: as §1, §2, §3

PANC-1 = test: as above; assay type: cell-based, human; details: Homo sapiens, PANC-1; 72 h, MTS
Excerpt: as §1, §2, §3

U-251 = test: as above; assay type: cell-based, human; details: Homo sapiens, U-251; 72 h, MTS
Excerpt: as §1, §2, §3

NHDF = test: Cytotoxicity studies (MTS), normal fibroblasts; assay type: cell-based; details: 72 h, normal human fibroblasts, read-out: Antiproliferative activity IC50 NHDF
Excerpt: as §1, §2, §3

MCF-7 = test: Cytotoxicity studies (MTS), antiproliferative activity; assay type: cell-based, human; details: Homo sapiens, MCF7; 72 h, MTS
Excerpt: as §1, §2, §3

T1 sequence (P00519 whole entry): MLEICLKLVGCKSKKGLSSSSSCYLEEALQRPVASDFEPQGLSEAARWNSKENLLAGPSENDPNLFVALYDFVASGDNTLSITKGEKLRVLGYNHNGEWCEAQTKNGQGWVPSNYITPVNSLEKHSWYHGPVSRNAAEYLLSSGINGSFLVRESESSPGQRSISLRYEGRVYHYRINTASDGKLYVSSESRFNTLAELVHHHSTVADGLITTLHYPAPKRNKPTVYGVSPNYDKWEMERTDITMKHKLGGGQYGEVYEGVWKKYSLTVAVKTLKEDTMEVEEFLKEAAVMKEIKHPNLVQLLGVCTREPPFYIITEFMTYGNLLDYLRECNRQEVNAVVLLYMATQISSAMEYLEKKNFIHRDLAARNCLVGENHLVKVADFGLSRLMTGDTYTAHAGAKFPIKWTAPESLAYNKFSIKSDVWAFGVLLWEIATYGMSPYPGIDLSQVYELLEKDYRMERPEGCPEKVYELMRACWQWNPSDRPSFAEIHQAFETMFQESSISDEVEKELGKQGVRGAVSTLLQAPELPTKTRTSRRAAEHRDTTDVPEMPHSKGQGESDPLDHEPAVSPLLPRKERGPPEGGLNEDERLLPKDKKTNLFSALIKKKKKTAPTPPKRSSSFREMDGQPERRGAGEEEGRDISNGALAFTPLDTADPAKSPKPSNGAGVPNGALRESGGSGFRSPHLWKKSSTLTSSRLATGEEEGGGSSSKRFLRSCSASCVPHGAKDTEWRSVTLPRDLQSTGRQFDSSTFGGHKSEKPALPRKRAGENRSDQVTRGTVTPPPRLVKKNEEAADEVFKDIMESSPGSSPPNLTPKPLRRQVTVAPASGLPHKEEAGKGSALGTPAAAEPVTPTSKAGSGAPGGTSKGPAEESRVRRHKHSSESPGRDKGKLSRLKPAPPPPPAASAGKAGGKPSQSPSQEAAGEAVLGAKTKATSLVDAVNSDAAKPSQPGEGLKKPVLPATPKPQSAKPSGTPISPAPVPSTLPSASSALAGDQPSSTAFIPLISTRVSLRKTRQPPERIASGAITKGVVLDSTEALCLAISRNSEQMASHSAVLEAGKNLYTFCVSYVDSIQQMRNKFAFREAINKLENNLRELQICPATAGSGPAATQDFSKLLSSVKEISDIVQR

| SMILES | Inhibition of tyrosine kinase activity [%] ABL (ABL; 0.5 μM) | inhibition at 0.5 µM (ABL) | inhibition at 0.5 µM (BTK) | inhibition at 0.5 µM (BRK) | inhibition at 0.5 µM (CSK) | inhibition at 0.5 µM (Fyn A) | inhibition at 0.5 µM (Lck) | inhibition at 0.5 µM (Lyn B) | inhibition at 0.5 µM (Src) | Inhibition of tyrosine kinase activity [%] Fyn A (Fyn A; 0.5 μM) | Inhibition of tyrosine kinase activity [%] Lck (Lck; 0.5 μM) | Inhibition of tyrosine kinase activity [%] Src (Src; 0.5 μM) | IC50 (A549) | IC50 (HCT 116 p53+/+) | IC50 (HCT 116 p53−/−) | IC50 (K562) | IC50 (PANC-1) | IC50 (U-251) | IC50 (NHDF) | IC50 (MCF-7) |
| --- | --- | --- | --- | --- | --- | --- | --- | --- | --- | --- | --- | --- | --- | --- | --- | --- | --- | --- | --- | --- |
| COc1ccccc1/C=C/c1nc(Sc2ccccn2)c2ccc(Cl)cc2n1 [IS14, 2-[(E)-2–(2-methoxyphenyl)ethenyl]-7-chloro-4-(pyrid-2-ylthio)quinazoline] |  | 7.64 ± 0.7% |  |  | 0% | 16 ± 7.94% | 14.8 ± 6.02% | 0% | 40.5 ± 9.17% |  |  |  |  | > 25 µM |  | 21.6 ± 2.1 µM | > 25 µM | > 25 µM |  | > 25 µM |
| COc1ccccc1/C=C/c1nc(Sc2ccccc2Cl)c2ccc(Cl)cc2n1 [IS12, 2-[(E)-2–(2-methoxyphenyl)ethenyl]-7-chloro-4–(2-chlorophenylthio)quinazoline] |  | 0% | 15.4 ± 4.19% | 0% | 0% | 0% | 0% | 0% | 0% |  |  |  | > 25 µM | > 25 µM | > 25 µM | > 25 µM |  | > 25 µM |  | > 25 µM |
| COc1cccc(Sc2nc(/C=C/c3ccccc3OC)nc3cc(Cl)ccc23)c1 [IS13, 2-[(E)-2–(2-methoxyphenyl)ethenyl]-7-chloro-4–(3-methoxyphenylthio)quinazoline] |  | 0% | 0% | 0% | 0% | 0% | 0% | 0% | 0% |  |  |  | > 25 µM | > 25 µM | > 25 µM | > 25 µM |  | > 25 µM |  | > 25 µM |
| COc1ccc(/C=C/c2nc(NCCCN(C)C)c3ccccc3n2)cc1 [CP-31398, N'-[2-[2–(4-methoxyphenyl)ethenyl]-4-quinazolinyl]-N,N-dimethyl-1,3-propanediamine dihydrochloride, reference compound] |  |  | 36.8 ± 3.66% |  |  | 30.6 ± 7.83% |  |  |  |  |  |  | > 25 µM | 18.6 ± 0.92 µM | 26.3 ± 1.41 µM | 3.09 ± 0.36 µM | > 25 µM | 18.8 ± 1.65 µM | 12.3 ± 0.54 µM | 27 ± 2.1 µM |
| COc1ccccc1/C=C/c1nc(Sc2ccccc2C(F)(F)F)c2ccccc2n1 [IS6, 2-[(E)-2–(2-methoxyphenyl)ethenyl]-4-[2-(trifluoromethyl)phenylthio]quinazoline] |  | 1.18 ± 0.17% |  |  | 0% | 26.1 ± 8.39% | 0% | 1.39 ± 0.41% | 43.8 ± 9.07% |  |  |  |  | > 25 µM |  | > 25 µM | > 25 µM | > 25 µM |  | > 25 µM |
| Cc1nc(Nc2ncc(C(=O)Nc3c(C)cccc3Cl)s2)cc(N2CCN(CCO)CC2)n1 [Dasatinib, dasatinib, reference compound] |  |  |  |  | 94.2 ± 1.28% | 92.3 ± 2.55% |  | 97.5 ± 1.49% |  |  |  |  |  |  |  |  |  |  |  |  |
| COc1ccc(/C=C/c2nc(Sc3ccccc3Cl)c3ccccc3n2)cc1 [IS18, 2-[(E)-2–(4-methoxyphenyl)ethenyl]-4–(2-chlorophenylthio)quinazoline] |  | 11.7 ± 4.03% |  |  | 0% | 17.3 ± 4.47% | 66.5 ± 7.49% | 13.8 ± 1% | 26.1 ± 6.03% |  |  |  |  | 11.1 ± 1.37 µM |  | > 25 µM | 12 ± 1.2 µM | 10.3 ± 0.818 µM |  | 10.6 ± 1.38 µM |

Now from value to compound, other results behind:

| Inhibition of tyrosine kinase activity [%] ABL (ABL; 0.5 μM) | inhibition at 0.5 µM (ABL) | inhibition at 0.5 µM (BTK) | inhibition at 0.5 µM (BRK) | inhibition at 0.5 µM (CSK) | inhibition at 0.5 µM (Fyn A) | inhibition at 0.5 µM (Lck) | inhibition at 0.5 µM (Lyn B) | inhibition at 0.5 µM (Src) | Inhibition of tyrosine kinase activity [%] Fyn A (Fyn A; 0.5 μM) | Inhibition of tyrosine kinase activity [%] Lck (Lck; 0.5 μM) | Inhibition of tyrosine kinase activity [%] Src (Src; 0.5 μM) | SMILES | IC50 (A549) | IC50 (HCT 116 p53+/+) | IC50 (HCT 116 p53−/−) | IC50 (K562) | IC50 (PANC-1) | IC50 (U-251) | IC50 (NHDF) | IC50 (MCF-7) |
| --- | --- | --- | --- | --- | --- | --- | --- | --- | --- | --- | --- | --- | --- | --- | --- | --- | --- | --- | --- | --- |
| inactive | 18.4 ± 2.37% | 2.87 ± 0.67% | 0% | 50.7 ± 5.6% | 19.1 ± 3.57% | 0% | 0.86 ± 0.23% | 40.9 ± 1.77% |  |  |  | COc1ccccc1/C=C/c1nc(Sc2cc3c(cc2Br)OCO3)c2ccccc2n1 [IS11, 5-{2-[(E)-2–(2-methoxyphenyl)ethenyl]quinazolin-4-ylthio}-6-bromo-2H-1,3-benzodioxole] | > 5 µM | > 15 µM | > 15 µM | > 2.5 µM | > 10 µM | > 5 µM | 21.7 ± 1.53 µM |  |
|  | 4.02 ± 3.58% | 31.6 ± 2.38% | 0% | 35 ± 1.11% | 60 ± 2.85% | 13.4 ± 5.58% | 26.2 ± 1.55% | 0% |  |  |  | COc1ccccc1/C=C/c1nc(Sc2cc(Cl)ccc2Cl)c2ccccc2n1 [IS3, 2-[(E)-2–(2-methoxyphenyl)ethenyl]-4–(2,5-dichlorophenylthio)quinazoline] |  | > 25 µM | > 25 µM | > 25 µM |  |  |  | > 25 µM |
|  | 25.2 ± 3.69% |  |  | 62.1 ± 4.45% | 52% | ~74% | 38.4 ± 8.58% | 58% | 52.32 ± 7.04% | 73.92 ± 9.72% | 58.56 ± 4.80% | COc1ccccc1/C=C/c1nc(Sc2cccc(Cl)c2)c2ccccc2n1 [IS2, 2-[(E)-2–(2-methoxyphenyl)ethenyl]-4–(3-chlorophenylthio)quinazoline] |  | 23.8 ± 5.32 µM |  | 24.8 ± 2.45 µM | 25.1 ± 1.44 µM | > 25 µM |  | 19.7 ± 1.13 µM |
|  | 18.5 ± 1.59% |  |  | 23.1 ± 5.24% | 3.77 ± 1.21% | 37 ± 7.87% | 7.67 ± 3.28% | 28.2 ± 5.41% |  |  |  | COc1ccccc1/C=C/c1nc(Sc2ccccc2F)c2ccccc2n1 [IS5, 2-[(E)-2–(2-methoxyphenyl)ethenyl]-4–(2-fluorophenylthio)quinazoline] |  | > 25 µM |  | > 25 µM | > 25 µM | > 25 µM |  | > 25 µM |
